Tests used:
PDK1 [1] = target: T1, PDK1 (Homo sapiens, UniProt O15530); assay: Cellular testing of PDK1 kinase inhibitors in PC3 cells (Luminex, phospho-T308-PKB); format: cell-based; settings: 30 min, serum-free
T1 construct: endogenous in cells; host or cells: PC3 cells
T1 sequence (O15530 1-556): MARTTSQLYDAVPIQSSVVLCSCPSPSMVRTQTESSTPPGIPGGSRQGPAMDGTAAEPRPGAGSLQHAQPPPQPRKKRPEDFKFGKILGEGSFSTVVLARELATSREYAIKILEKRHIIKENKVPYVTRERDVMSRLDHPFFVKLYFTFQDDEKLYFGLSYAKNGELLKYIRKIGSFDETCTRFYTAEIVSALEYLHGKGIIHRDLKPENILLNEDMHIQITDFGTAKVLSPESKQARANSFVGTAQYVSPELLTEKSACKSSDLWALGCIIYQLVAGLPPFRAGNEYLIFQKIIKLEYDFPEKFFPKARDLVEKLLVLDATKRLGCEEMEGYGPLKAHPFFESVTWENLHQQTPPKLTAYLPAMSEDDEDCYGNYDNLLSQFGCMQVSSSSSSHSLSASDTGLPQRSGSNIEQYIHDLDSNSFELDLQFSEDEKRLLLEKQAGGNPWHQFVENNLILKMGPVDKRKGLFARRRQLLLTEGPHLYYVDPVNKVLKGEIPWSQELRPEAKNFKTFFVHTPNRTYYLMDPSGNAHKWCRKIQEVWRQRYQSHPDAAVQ
Description: Method for the Cellular Testing of PDK1 Kinase Inhibitors in PC3 Cells.
The cellular assay for the determination of the PDK1 kinase activity is carried out as a Luminex assay in the 96-well format. PC3 cells are sown at 20,000 cells per well in 100 μl of medium (45% of […]/45% of Ham's F12/10% of FCS) and incubated on the following day for 30 min with a serial dilution of the test substance (7 concentrations) under serum-free conditions. The cells are subsequently lysed using 90 μl of lysis buffer (20 mM tris/HCl pH 8.0, 150 mM NaCl, 1% of NP40, 10% of glycerol, 1% of phosphatase inhibitor I, 1% of phosphatase inhibitor II, 0.1% of protease inhibitor cocktail III, 0.01% of benzonase) per well, and the lysates are separated off from insoluble cell constituents by means of centrifugation through a 96-well filter plate (0.65 μm). The lysates are incubated overnight at 4° C. with shaking with Luminex beads to which an anti-total PKB antibody is coupled. The detection is carried out on the following day by addition of a phospho-T308-PKB antibody and a species-specific […] secondary antibody. The detection of phospho T308-PKB is carried out by measurement in a Luminex100 instrument by determination of 100 events per cavity in a measurement time of 60 sec. As pharmacological blank, the signals obtained from cells which have been treated with 10 μM staurosporin are subtracted from all other batches. The control value used for maximum phosphorylation of PKB on T308 are the signals from cells which have only been treated with the solvent (0.3% of DMSO). The values of the batches treated with test substance are calculated therefrom as percentage of control, and IC50 values are determined by means of RS 1.

PDK1 [2] = target: T2, PDK1 (Homo sapiens, UniProt O15530); assay: Test for the inhibition of PDK1 (flashplate, 33P-ATP); settings: His6-PDK1 (1-50) 3.4 nM, 4 μM ATP, 30° C., 60 min; read-out: IC50 [PDK1] biochemical
T2 construct: His6 (N)
T2 sequence (O15530 51-556 limits assumed): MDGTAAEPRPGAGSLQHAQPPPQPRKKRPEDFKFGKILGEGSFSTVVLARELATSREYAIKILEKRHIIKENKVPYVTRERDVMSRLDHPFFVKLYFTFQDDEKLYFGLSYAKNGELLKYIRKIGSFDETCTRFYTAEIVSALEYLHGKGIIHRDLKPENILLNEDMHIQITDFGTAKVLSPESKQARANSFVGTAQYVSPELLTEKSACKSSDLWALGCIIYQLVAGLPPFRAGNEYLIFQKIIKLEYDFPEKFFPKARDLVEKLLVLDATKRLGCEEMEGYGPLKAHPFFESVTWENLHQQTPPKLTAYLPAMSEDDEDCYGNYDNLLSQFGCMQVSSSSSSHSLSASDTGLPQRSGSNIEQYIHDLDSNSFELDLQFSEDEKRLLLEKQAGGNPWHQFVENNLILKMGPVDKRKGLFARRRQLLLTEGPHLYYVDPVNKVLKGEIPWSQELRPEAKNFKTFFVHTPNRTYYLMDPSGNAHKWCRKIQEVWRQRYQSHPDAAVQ
Description: The experimental batches are carried out in a flashplate system with 384 wells/microtitration plate.
In each case, the PDK1 sample His6-PDK1 (1-50) (3.4 nM), the PDK1 substrate biotin-bA-bA-[…] (400 nM), 4 μM ATP (with 0.2μ Ci of ^33P-ATP/well) and the test substance in 50 μl of conventional experimental solution per well are incubated at 30° C. for 60 min. The test substances are employed in corresponding concentrations (if desired in a dilution series). The control is carried out without test substance. The reaction is stopped using standard methods and washed. The activity of the kinase is measured via the incorporated radioactivity in top count. In order to determine the non-specific kinase reaction (blank value), the experimental batches are carried out in the presence of 100 nM staurosporin.
The radioactivity (decompositions per minute) of the blank value (no use of test substance in the presence of staurosporin) is subtracted from all other radioactivity values. The controls (kinase activity without test substance) are set equal to 100 percent and all other radioactivity values (after subtracting the blank value) are expressed set in relation thereto (for example in % of the control).
IC50 values (50% inhibition) are determined with the aid of statistics programmes, such as, for example, RS1.

SMILES	IC50 (PDK1 [1])	IC50 (PDK1 [2])
Cn1cc(-c2cnc3[nH]cc(-c4n[nH]c(Cc5cccc(F)c5)n4)c3c2)cn1 [A14, 3-[5-(3-fluorobenzyl)-1H-1,2,4-triazol-3-yl]-5-(1-methyl-1H-pyrazol-4-yl)-1H-pyrrolo[2,3-b]pyridine]	1 to 10 µM	0.0005 to 1 µM
Cn1cc(-c2cnc3[nH]cc(-c4nnc(C(O)c5cccc(F)c5F)o4)c3c2)cn1 (stereo not drawn) [A46]	0.0005 to 1 µM	0.0005 to 1 µM
Cn1cc(-c2cnc3[nH]cc(-c4noc(C(C)(O)c5ccccc5)n4)c3c2)cn1 (stereo not drawn) [A31]	0.0005 to 1 µM	0.0005 to 1 µM
CCC(O)(c1cccc(F)c1)c1cc(-c2c[nH]c3ncc(-c4cnn(C)c4)cc23)no1 (stereo not drawn) [A11]	0.0005 to 1 µM	0.0005 to 1 µM
Cn1cc(-c2cnc3[nH]cc(-c4cc(C(C)(O)c5ccccc5F)on4)c3c2)cn1 (stereo not drawn) [A6]	0.0005 to 1 µM	0.0005 to 1 µM
Cn1cc(-c2cnc3[nH]cc(-c4noc(C(O)c5ccccc5)n4)c3c2)cn1 (stereo not drawn) [A23]	1 to 10 µM	0.0005 to 1 µM
Cn1cc(-c2cnc3[nH]cc(-c4cc([C@@](C)(O)c5ccccc5)on4)c3c2)cn1 (single isomer, unassigned) [A34]	0.0005 to 1 µM	0.0005 to 1 µM
Cn1cc(-c2cnc3[nH]cc(-c4nnc(Cc5cccc(F)c5)o4)c3c2)cn1 [A19, 3-[5-(3-fluorobenzyl)-1,3,4-oxadiazol-2-yl]-5-(1-methyl-1H-pyrazol-4-yl)-1H-pyrrolo[2,3-b]pyridine]	1 to 10 µM	0.0005 to 1 µM
Cn1cc(-c2cnc3[nH]cc(-c4cc(C(C)(O)c5ccccc5)on4)c3c2)cn1 (stereo not drawn) [A1, 1-{3-[5-(1-methyl-1H-pyrazol-4-yl)-1H-pyrrolo[2,3-b]pyridin-3-yl]isoxazol-5-yl}-1-phenylethanol]	0.0005 to 1 µM	0.0005 to 1 µM
Cn1cc(-c2cnc3[nH]cc(-c4cc(C(C)(O)c5cccc(F)c5)[nH]n4)c3c2)cn1 (stereo not drawn) [A37, 1-(3-fluorophenyl)-1-{5-[5-(1-methyl-1H-pyrazol-4-yl)-1H-pyrrolo[2,3-b]pyridin-3-yl]-2H-pyrazol-3-yl}ethanol]	0.0005 to 1 µM	0.0005 to 1 µM
Cn1cc(-c2cnc3[nH]cc(-c4cc(C(C)(O)c5cccc(F)c5)on4)c3c2)cn1 (stereo not drawn) [A36]	0.0005 to 1 µM	0.0005 to 1 µM
Cn1cc(-c2cnc3[nH]cc(-c4csc(Cc5ccccc5F)n4)c3c2)cn1 [A4]	1 to 10 µM	1 to 10 µM
Cn1cc(-c2cnc3[nH]cc(-c4n[nH]c(Cc5ccccc5F)n4)c3c2)cn1 [A15]	1 to 10 µM	0.0005 to 1 µM
Cn1cc(-c2cnc3[nH]cc(-c4cc([C@](C)(O)c5ccccc5)on4)c3c2)cn1 (single isomer, unassigned) [A35]	1 to 10 µM	0.0005 to 1 µM
Cn1cc(-c2cnc3[nH]cc(-c4noc(C(C)(O)c5ccccc5F)n4)c3c2)cn1 (stereo not drawn) [A50]	1 to 10 µM	0.0005 to 1 µM
Cn1cc(-c2cnc3[nH]cc(-c4nnc(C(C)(O)c5ccccc5F)o4)c3c2)cn1 (stereo not drawn) [A48]	0.0005 to 1 µM	0.0005 to 1 µM
Cn1cc(-c2cnc3[nH]cc(-c4nnc(Cc5cccc(F)c5F)o4)c3c2)cn1 [A20]	1 to 10 µM	0.0005 to 1 µM
Cn1cc(-c2cnc3[nH]cc(-c4n[nH]c(C(C)(O)c5cccc(F)c5)n4)c3c2)cn1 (stereo not drawn) [A44]	1 to 10 µM	0.0005 to 1 µM
Cn1cc(-c2cnc3[nH]cc(-c4cc([C@](C)(O)c5ccccc5F)on4)c3c2)cn1 (single isomer, unassigned) [A55]	0.0005 to 1 µM	0.0005 to 1 µM

The next lines start with the values.

IC50 (PDK1 [1])	IC50 (PDK1 [2])	SMILES
0.0005 to 1 µM	1 to 10 µM	Cn1cc(-c2cnc3[nH]cc(-c4nc(C(C)(O)c5ccccc5)no4)c3c2)cn1 (stereo not drawn) [A67]
1 to 10 µM	0.0005 to 1 µM	Cn1cc(-c2cnc3[nH]cc(-c4nnc(C5(c6cccnc6)CC5)o4)c3c2)cn1 [A124, 5-(1-methyl-1H-pyrazol-4-yl)-3-[5-(1-pyridin-3-ylcyclopropyl)-1,3,4-oxadiazol-2-yl]-1H-pyrrolo[2,3-b]pyridine]
1 to 10 µM	1 to 10 µM	C=C(c1ccccc1)c1cc(-c2c[nH]c3ncc(-c4cnn(C)c4)cc23)nn1CCO [A69]
1 to 10 µM	0.0005 to 1 µM	Cn1cc(-c2cnc3[nH]cc(-c4cc(C(O)c5ccccc5)n(C)n4)c3c2)cn1 (stereo not drawn) [A84]
0.0005 to 1 µM	0.0005 to 1 µM	Cn1cc(-c2cnc3[nH]cc(-c4cc(C(C)(O)c5cccc(F)c5F)[nH]n4)c3c2)cn1 (stereo not drawn) [A64]
0.0005 to 1 µM	0.0005 to 1 µM	Cn1cc(-c2cnc3[nH]cc(-c4nnc(C(O)c5ccccc5C(F)(F)F)o4)c3c2)cn1 (stereo not drawn) [A86]
1 to 10 µM	1 to 10 µM	Cn1cc(-c2cnc3[nH]cc(-c4nnc(C(N)c5cc(F)cc(F)c5)o4)c3c2)cn1 (stereo not drawn) [A117]
1 to 10 µM	0.0005 to 1 µM	Cn1cc(-c2cnc3[nH]cc(-c4cc(C(C)(O)c5ccc(=O)n(C)n5)on4)c3c2)cn1 (stereo not drawn) [A99, 6-(1-hydroxy-1-{3-[5-(1-methyl-1H-pyrazol-4-yl)-1H-pyrrolo-[2,3-b]pyridin-3-yl]isoxazol-5-yl}ethyl)-2-methyl-2H-pyridazin-3-one]
1 to 10 µM	0.0005 to 1 µM	Cn1cc(-c2cnc3[nH]cc(-c4nnc(C(O)c5ccc(F)cc5)o4)c3c2)cn1 (stereo not drawn) [A57, (4-fluorophenyl)-{5-[5-(1-methyl-1H-pyrazol-4-yl)-1H-pyrrolo[2,3-b]pyridin-3-yl]-1,3,4-oxadiazol-2-yl}methanol]
0.0005 to 1 µM	0.0005 to 1 µM	Cn1cc(-c2cnc3[nH]cc(-c4nnc(C(O)c5cccc(Cl)c5Cl)o4)c3c2)cn1 (stereo not drawn) [A65]
1 to 10 µM	1 to 10 µM	Cn1cc(-c2cnc3[nH]cc(-c4nnc(C(F)c5cccc(F)c5)o4)c3c2)cn1 (stereo not drawn) [A82]
0.0005 to 1 µM	0.0005 to 1 µM	Cn1cc(-c2cnc3[nH]cc(-c4nnc(C5(c6ccccc6F)CC5)o4)c3c2)cn1 [A70]
1 to 10 µM	1 to 10 µM	Cn1cc(-c2cnc3[nH]cc(-c4nnc(C5(c6ccnc(Cl)c6)CC5)o4)c3c2)cn1 [A91]
0.0005 to 1 µM	0.0005 to 1 µM	Cn1cc(-c2cnc3[nH]cc(-c4cc(C(O)c5ccccc5)on4)c3c2)cn1 (stereo not drawn) [A75]
0.0005 to 1 µM	0.0005 to 1 µM	Cn1cc(-c2cnc3[nH]cc(-c4nc(C(C)(O)c5cccc(F)c5)no4)c3c2)cn1 (stereo not drawn) [A72]
0.0005 to 1 µM	0.0005 to 1 µM	Cn1cc(-c2cnc3[nH]cc(-c4cc(C(C)(O)c5cccc(F)c5F)on4)c3c2)cn1 (stereo not drawn) [A61]
0.0005 to 1 µM	0.0005 to 1 µM	Cn1cc(-c2cnc3[nH]cc(-c4nnc(C(O)c5cccc(Cl)c5)o4)c3c2)cn1 (stereo not drawn) [A59]
